Test [1] addresses T1, NK1 receptor (Homo sapiens, UniProt P25103).
T1 construct: endogenous in cells; host or cells: UC11 cells
The test is described as follows: Antagonism of NK1 receptor mediated (SP-induced) phosphatidylinositol turnover in UC11 cells. Format: cell-based. How it is done: (§1) Tachykinin-mediated inositol phosphate accumulation was measured in UCll or SKLKB82#3 cells in the presence and absence of NK1 or NK2 receptor antagonists, respectively. Tissues were incubated in Krebs-Henseleit buffer at 37°C with 95% O2-5% CO2 gassing. Tissues were then incubated with fresh buffer containing 100 µCi of myo-[2-^3H(N)] inositol at 37°C for 60 min with gentle gassing. After washing twice at room temperature in 5 ml buffer containing 10 mM LiCl, tissues were incubated for 30 min at room temperature with a buffer change at 15 min. Buffer was removed and Krebs-Henseleit buffer (containing 40 µg/ml bacitracin, 4 µg/ml each of leupeptin and chymostatin, 0.1% bovine serum albumin and 10 mM each of thiorphan and LiCl) added. After 15 min, SP was added to UCll cells or NKA to SKLKB82#3 cells at various concentrations to start the reaction. After incubation for 60 min at room temperature the reaction was terminated by addition of 930 µl chloroform: methanol (1:2 by volume) to each tube, followed by 310 µl chloroform and 310 µl doubly distilled water. Samples were vortexed, centrifuged, and 0.9 ml of the aqueous (top) phase removed and added to 2 ml ddH2O. The mixture was vortexed and loaded onto a 50% Bio-Rad AG 1-X8 (formate form, 100-200 mesh) exchange column (Bio-Rad Laboratories, Hercules, CA). The columns were washed, in order, with: 1) 10 ml doubly distilled water, 2) 5 ml of 5 mM disodium tetraborate/60 mM sodium formate, and 3) 5 ml of 1 M ammonium formate/0.1 M formic acid. The third elution was collected and 1 ml counted in 7 ml scintillation fluid. A 50 µl aliquot of the organic (bottom) phase was removed, dried in a scintillation vial and counted in 7 ml scintillation fluid.
(§2) The ratio of DPM in the aqueous phase aliquot (total inositol phosphates) to the DPM in the 50 µl organic phase aliquot (total [^3H]inositol incorporated) was calculated for each sample. Data are expressed as a percent of agonist-induced accumulation of [^3H]-inositol phosphates over basal levels. The ratios in the presence of test compound and/or standards were compared to the ratios for control samples (i.e. no stimulating agonist). Dose-response graphs were constructed and the abilities of the test compounds to inhibit tachykinin-induced phosphatidylinositol turnover determined with the aid of a computer program. […] Data is expressed as percent stimulation of total inositol phosphate accumulation over basal levels and normalized to the maximum response produced by SP. […] Schild analysis is performed using dose response curves (such as those presented in Figures 1a and 1b) to obtain a value indicative of the strength of a competitive antagonist and is expressed as the pA2, which is the negative logarithm of the molar concentration of antagonist which reduces the effect of a dose of agonist to one-half of that expected at the dose of agonist. […]
(§3) Values are mean (95% confidence limits) derived from Schild analysis of 2-3 experiments per compound per receptor.

A further test addresses T2, NK2 receptor (Bos taurus, UniProt P05363).
T2 construct: expressed in transfected cells; host or cells: SKLKB82#3 cells
T2 sequence (P05363 1-384): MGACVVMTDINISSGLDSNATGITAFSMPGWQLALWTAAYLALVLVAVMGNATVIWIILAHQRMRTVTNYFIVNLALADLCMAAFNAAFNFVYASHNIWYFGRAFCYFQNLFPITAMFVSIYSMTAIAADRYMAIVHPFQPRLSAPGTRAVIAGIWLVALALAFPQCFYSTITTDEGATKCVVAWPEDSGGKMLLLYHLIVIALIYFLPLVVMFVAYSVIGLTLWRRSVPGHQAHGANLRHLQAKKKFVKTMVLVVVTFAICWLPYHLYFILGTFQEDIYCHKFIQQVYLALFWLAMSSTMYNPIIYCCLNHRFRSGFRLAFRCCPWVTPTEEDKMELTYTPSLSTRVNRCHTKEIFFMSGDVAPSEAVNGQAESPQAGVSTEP
Put plainly: Antagonism of NK2 receptor mediated (NKA-induced) phosphatidylinositol turnover in SKLKB82#3 cells. Format: cell-based. Here is the method: as §1, §2, §3

Test [2] has as its target T3, NK1 receptor (Cavia porcellus, UniProt P30547).
T3 construct: Tissues or cells were homogenized with a Polytron in 15 volumes of 50 mM Tris-HCl buffer; tissue Keystone Biologicals, Cleveland, OH; host or cells: guinea pig lung membranes
The test is described as follows: Antagonism of iodinated tachykinin binding to NK1 receptor (125I-Bolton Hunter Lys-3 labeled substance P, guinea pig lung membranes). The method in brief:
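Membranes (HSKR-1 are mouse 3T3 fibroblasts expressing human NK2) incubated at room temperature with 0.1 nM radioligand in 50 mM Tris-HCl pH 7.4 with 0.1% BSA, 2 mM MnCl2, protease inhibitors and 1 µM thiorphan, for 90 min (NK1) or 2 hr (NK2/NK3). Filter-bound counts; nonspecific binding with 1 µM cognate peptide; IC50 by nonlinear regression.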

Setting [3] is: Schild analysis, SP in UC11 cells, mean (95% confidence limits), 2-3 experiments.
[4] abbreviates: Schild analysis, NKA in SKLKB82#3 cells, mean (95% confidence limits), 2-3 experiments.

Where a name gives a salt, the structure may show the parent alone. Read-outs that look alike come from different tables or passages of the source.

T3 sequence (P30547 whole entry): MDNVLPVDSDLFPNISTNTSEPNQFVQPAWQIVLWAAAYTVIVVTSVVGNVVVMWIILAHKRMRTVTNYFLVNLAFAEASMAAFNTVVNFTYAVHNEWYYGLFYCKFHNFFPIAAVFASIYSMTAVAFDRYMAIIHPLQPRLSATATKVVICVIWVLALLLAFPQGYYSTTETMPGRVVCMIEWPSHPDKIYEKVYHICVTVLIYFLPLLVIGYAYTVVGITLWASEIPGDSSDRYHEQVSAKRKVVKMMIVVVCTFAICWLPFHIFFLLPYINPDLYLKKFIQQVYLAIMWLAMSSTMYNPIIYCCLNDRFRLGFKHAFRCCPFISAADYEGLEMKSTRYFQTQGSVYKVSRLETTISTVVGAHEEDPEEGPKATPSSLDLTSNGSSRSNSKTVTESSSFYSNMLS
T1 sequence (P25103 whole entry): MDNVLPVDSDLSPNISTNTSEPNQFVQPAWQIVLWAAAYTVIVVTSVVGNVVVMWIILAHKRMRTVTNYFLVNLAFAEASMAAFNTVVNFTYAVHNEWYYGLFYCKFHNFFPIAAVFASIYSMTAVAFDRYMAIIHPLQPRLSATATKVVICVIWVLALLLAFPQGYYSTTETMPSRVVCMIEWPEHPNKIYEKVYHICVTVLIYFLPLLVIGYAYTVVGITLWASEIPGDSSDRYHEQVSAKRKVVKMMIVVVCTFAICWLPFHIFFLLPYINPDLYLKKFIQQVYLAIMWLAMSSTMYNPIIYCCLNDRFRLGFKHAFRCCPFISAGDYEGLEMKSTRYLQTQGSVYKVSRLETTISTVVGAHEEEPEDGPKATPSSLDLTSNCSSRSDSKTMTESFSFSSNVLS

For `COc1cc(C(=O)N2CCC(CCN3CCC(C(N)=O)(c4ccccc4)CC3)(c3ccc(Cl)c(Cl)c3)C2)cc(OC)c1OC` (racemic) [Example 3A, 1-[2-[3-(3,4-dichloro-phenyl-3-yl)-1-(3,4,5-trimethoxy-benzoyl)-pyrrolidin-3-yl]-ethyl] -4-phenyl-piperidine-4-carboxylic acid amide hydrochloride], the “NK-1 RECEPTOR -SLOPE” value on NK1 receptor [1] (setting [3]) is 0.90 (0.65-1.15). Moreover, the Kb on NK1 receptor [1] (Schild analysis, SP in UC11 cells, mean (95% confidence limits), 2-3 experiments, read-out: NK-1 RECEPTOR pA2 (converted)) was 12.3 nM; at NK2 receptor, 1.78 nM. Also, the “NK-2 RECEPTOR -SLOPE” value on NK2 receptor (setting [4]) is 0.73 (0.49-0.97). The molecule further yielded a half-maximal inhibitory concentration (IC50) at NK1 receptor [2] of 5.97 nM.

For `COc1cccc(OC)c1C(=O)N1CCC(CCN2CCC(C(N)=O)(c3ccccc3)CC2)(c2ccc(Cl)c(Cl)c2)C1` (racemic) [Example 5A, 1-[2-[3-(3,4-dichloro-phenyl-3-yl)-1-(2,6-dimethoxy-benzoyl)-pyrrolidin-3-yl]-ethyl]-4-phenyl-piperidine-4-carboxylic acid amide hydrochloride], the Kb is 47.9 nM on NK1 receptor [1] and 44.7 nM at NK2 receptor (Schild analysis, NKA in SKLKB82#3 cells, mean (95% confidence limits), 2-3 experiments, read-out: NK-2 RECEPTOR pA2 (converted)). Also, the “NK-1 RECEPTOR -SLOPE” value on NK1 receptor [1] (setting [3]) is 1.17 (0.41-1.93). For the same molecule, the “NK-2 RECEPTOR -SLOPE” value on NK2 receptor (setting [4]) is reported as 1.11 (0.99-1.23). The same molecule registered a half-inhibitory concentration (IC50) at NK1 receptor [2] of 20 nM.

Regarding `COc1cc(C(=O)N2CCC(CCN3CCC(C(N)=O)(c4ccccc4)CC3)(c3ccc(Cl)c(Cl)c3)C2)cc(OC)c1OC` (centres unmarked) [Example 3, 1-[2-[3-(3,4-dichloro-phenyl)-1-(3,4,5-trimethoxy-benzoyl)-pyrrolidin-3-yl]-ethyl]-4-phenyl-piperidine-4-carboxylic acid amide], at NK1 receptor [1] (UC11 cells, Figure 1a, result in words), the “antagonism of the receptor mediated SP induced PI turnover” value is reported as “dose related antagonism”. In addition, the “antagonism of the receptor mediated NKA induced PI turnover” value on NK2 receptor (SKLKB82#3 cells, Figure 1b, result in words) is reported as “dose related antagonism”. The molecule also had a half-maximal inhibitory concentration (IC50) on NK1 receptor [2] of 5 nM. In addition, at NK1 receptor [2] (result in words), the “affinity for NK1 receptors” value is “high affinity”.

As a reminder, the IC50 is the concentration that inhibits the measured activity by half. A high value points to weaker potency in that assay.
